Reference: patent US20250043349A1, “DEORPHANIZING ODORS USING SINGLE CELL SEQUENCING” (PRESIDENT AND FELLOWS OF HARVARD COLLEGE, priority 2021, published 2025)

What was measured:
[1] = tested on: olfactory bulb glomeruli; assay: In vivo olfactory bulb imaging of OSN axons (GCaMP glomerular odor responses); set-up: species or system mouse; details: odor panel, anesthetized mice
Experimental: All surgical procedures were performed in accordance with the guidelines provided by IACUC at Harvard Medical School. Prior to surgery. 4-6 weeks old Omp-IRES-Cre: Ai951) (GCaMP6f) mice, were subcutaneously injected with the analgesic Buprenorphine-SR (1 mg/kg) and anesthetized 1-2 hours later with isoflurane (3% induction. 1-2% maintenance). The skin overlying the left olfactory bulb was retracted and the underlying periosteum was scraped off with a scalpel. The skull was subsequently cleaned with saline and allowed to dry. A 2.5 mm circular craniotomy was made using a biopsy punch (Integra Miltex) taking care not to damage the underlying dura. Gelfoam saturated with cold saline was placed over the craniotomy to reduce swelling and suppress minor bleeds. A custom cranial window was constructed using two circular coverslips (Warner Instruments, 3 mm. #1 thickness). […]
Chronic imaging of the dorsal surface of the olfactory bulb was performed after recovery from the surgery (1-2 weeks) under ketamine (100 mg/kg) and xylazine (10 mg/kg) induced anesthesia, to specifically isolate responses in OSN axons with less modulation from local interneurons and long-range cortical feedback. Depth of anesthesia was assessed every 15 minutes via the toc-pinch reflex and intraperitoneal ketamine was administered at 1/3 concentration of the induction dose for anesthesia maintenance. […]

[2] = tested on: OSN subtypes (odorant receptors, ORs); assay: Act-Seq: scSeq of olfactory epithelium after two-hour odor exposure (IEG expression, activated ORs, activation score); type: in vivo, mouse
Experimental: Act-Seq (Wu et al., 2017) was performed following odor exposure to quantify odor-evoked responses in each OSN subtype (defined by their expressed OR) across the entire OR repertoire. Mice were habituated to a reversed light cycle for at least for 1 week before odor exposure, transferred to a new disposable cage with regular bedding/food and kept overnight in a satellite animal facility. On the experimental day, each mouse was first transferred to a new empty disposable cage during the dark cycle and habituated for 20 minutes. Empty cages were used to avoid any activation by odorants present within the environments in which the mice were housed. Odors were added to a piece of filter paper (100 μL of odorant) in a 35 mm petri dish and a cotton ball (200 μL of odorant) and placed in each cage. After 2 hours, mice were euthanized, and dissociation was performed as described below. Odors used in this study were as follows. Dipropylene glycol (DPG, control solvent), and 10% of acetophenone, octanal, 2-hydroxy acetophenone, 4-methyl acetophenone, and methyl salicylate. As a control, mice were exposed to DPG alone for 30 min. This control condition was used to account for any drift in transcriptomes during the overnight housing and habituation periods prior to odor exposure and designed to capture the transcriptome in the state it would have been in the odor-exposed animals prior to odor exposure. […] Act-Seq was also performed using lower concentrations of acetophenone (1.0, 0.1, 0.01%) and 2-hydroxy acetophenone (0.1%, 0.01%). All odor dilutions were made with DPG, and all odors and DPG were obtained from Sigma. To assess the persistence of any transcriptional changes observed as a result of odor exposure, a cohort of mice was exposed to acetophenone or DPG for 2 hours, transferred to new clean regular home cages, and subjected to scSeq after an additional 22 hours.
The main olfactory epithelium was dissected in Earle's Balanced Salt Solution (EBSS, pre-treated with carbogen for at least 5 minutes before each use, Worthington), then transferred to a round-bottomed glass dish containing 750 μL of papain solution (one vial of Papain (Worthington) dissolved in 5 mL of EBSS and then equilibrated 10 minutes at 37° C.) and 100 μL of DNase solution (one vial of DNase-I (Worthington) dissolved in 500 μL of EBSS). Bone was removed from the epithelium under a dissecting microscope and the resulting epithelial tissue was placed in a 5 mL tube (Becton Dickinson) with an additional 1.75 mL of Papain solution and 200 μL of DNase-I solution and rocked gently for-60 minutes at 37° C. The tissue was then gently triturated with a 5 mL pipette 10-15 times, passed through a 40 μm cell strainer (Becton Dickinson), and washed with 1 mL of Hibernate-A medium containing 10% Fetal Bovine Serum (FBS. GIBCO). Filtered cells were transferred to a new 5 mL tube and centrifuged 5 minutes at 300×g. The supernatant was decanted, the cells were washed once with 4 mL Hibernate-A containing 10% FBS and resuspended in 1 mL Hibernate-A containing 0.2% FBS. Importantly, each of the solutions above contained transcriptional inhibitors (5 μg/mL of Actinomycin D, 10 μg/mL of Anisomycin and 10 μM of Triptolide, all obtained from Sigma) for all experiments, especially the Act-Seq experiments, except where noted.
OSN subtypes that were responsive to odorants were identified via a two-step process. First, individual OSNs (as defined by the expressed OR) were determined as activated based on their mean z-scored immediate early genes (IEG) expression. A set of 10 IEGs were used (Btg2, Egr1, Fos, Fosb, Gm13889, Junb, Nr4a1, Nr4a2, Pcdh10, and Srxn1). […] The set of 10 IEGs was used since even though all of the IEGs were specific to acute activation by odors, they were still only detected in a minority of cells due to the sparse nature of scSeq. […]

[3] = tested on: M72 receptor; details: Arneodo et al. 2018; Zhang et al. 2012; cited from earlier work
[4] = tested on: M72 (Olfr160); assay: Act-Seq activation score in OSNs expressing M72; type: in vivo, mouse; details: compared with acetophenone
Experimental: Act-Seq (Wu et al., 2017) was performed following odor exposure to quantify odor-evoked responses in each OSN subtype (defined by their expressed OR) across the entire OR repertoire. Mice were habituated to a reversed light cycle for at least for 1 week before odor exposure, transferred to a new disposable cage with regular bedding/food and kept overnight in a satellite animal facility. On the experimental day, each mouse was first transferred to a new empty disposable cage during the dark cycle and habituated for 20 minutes. Empty cages were used to avoid any activation by odorants present within the environments in which the mice were housed. Odors were added to a piece of filter paper (100 μL of odorant) in a 35 mm petri dish and a cotton ball (200 μL of odorant) and placed in each cage. […]
The remaining 169 activation genes that were also considered as HVGs often had weak loadings across multiple GEPs. […] To summarize the effects of odor activation across this set of activation genes, the TPT-expression of these activation genes were z-scored (using means and standard deviations for these genes in the control, acetophenone, and octanal datasets, identified by subsampling equal numbers of cells across all ORs expressed in at least 6 cells across 100 restarts). […] PCA was performed on the differences in z-scored activation gene expression between control and odor conditions. […]

[5] = biological target: T1, OR10A6 (Homo sapiens, UniProt Q8NH74); assay: In vivo human act-seq: nasal swab after 1 hour exposure, IEG expression in OSNs; set-up: endogenous in cells; host or cells: olfactory sensory neurons of a human subject, exposed in vivo and collected by nasal swab; details: human subject
T1 sequence (Q8NH74 1-314): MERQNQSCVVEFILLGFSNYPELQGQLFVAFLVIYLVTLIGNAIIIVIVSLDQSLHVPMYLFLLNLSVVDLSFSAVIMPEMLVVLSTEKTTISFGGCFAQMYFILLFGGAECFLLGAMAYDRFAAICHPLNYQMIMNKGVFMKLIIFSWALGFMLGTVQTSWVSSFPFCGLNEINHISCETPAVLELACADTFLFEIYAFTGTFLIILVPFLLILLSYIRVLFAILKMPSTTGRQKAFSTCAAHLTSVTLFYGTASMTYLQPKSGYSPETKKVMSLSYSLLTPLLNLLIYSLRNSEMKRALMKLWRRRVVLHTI
Experimental: FIG. 16A-16D show in vivo human act-seq data. FIG. 16A depicts a UMAP plot showing olfactory cells obtained from a human subject using a nasal swab after 1 hour exposure to 2-phenylethanol, which smells like rose oil. 1 hour exposure is performed by asking the subject to sniff the odor vial every 2-5 minutes. All major olfactory cell types were identified. OSN: olfactory sensory neuron lineage (progenitors and immature or mature neurons). SUS: sustentacular cells. HBC: horizontal basal cell. MV: microvillar cells. BG: Bowman's gland cells. FIG. 16B examines total count normalized expression of GFY gene (a mature OSN marker) in the UMAP plot. FIG. 16C examines total count normalized expression of immediate early genes (IEG) in OSNs that expressed odorant receptors (OR). […] Horizontal bars indicate mean across cells.

[6] = biological target: T1, OR10A6; details: previous study (doi.org/10.3390/molecules25204743); cited from earlier work

For `CCCCC=O` [Pentanal], the “breadth of responses across the population of glomeruli” value [1] was “broadest responses across the population of glomeruli”.

For `CCCCCCCC=O` [octanal], the “overlap between ORs activated by ACE and OCT, odds ratio” value ([2]; Fisher's exact test, overlap at chance levels) was 1.42 and the “z-scored expression of 10 immediate early genes (IEGs) for each OSN subtype, odor vs control” value ([2]; odor vs control (DPG) conditions) was “higher in the odor conditions”.

In the case of 2-hydroxyacetophenone, the “binding to the M72 receptor relative to acetophenone” value [3] is listed as “binds more strongly to the M72 receptor” and the “activation scores in OSNs expressing M72” value [4] is listed as “higher activation scores than acetophenone”.

In the case of `OCCc1ccccc1` [2-phenylethanol], the “mean total count normalized expression of 9 IEGs in OSNs expressing OR10A6 vs other ORs” value [5] is given as “much higher IEG expression” and the “activation of OR10A6 in vitro” value [6] is given as “activated”.
